Among the data in patent US8802678B2, “Carbonylated (aza) cyclohexanes as dopamine D3 receptor ligands” (Bioprojet, priority 2006, dated 2014) are melting point values, retold here.

The structures appear in SMILES notation. Counter-ions that a name gives are not always drawn.

With `CC(C)(C)OC(=O)CN1CCC(CCN2CCN(c3cccc(C(F)(F)F)c3)CC2)CC1.Cl.Cl`, the melting point was 245 °C.
The value for `CC(=O)CN1CCC(CCN2CCN(c3ccc(F)c(C#N)c3Cl)CC2)CC1.Cl.Cl` was 291 °C; that for `COc1cccc(N2CCN(CC[C@H]3CC[C@H](NC(=O)CC#N)CC3)CC2)c1.Cl` was 219 °C; that for `Cl.N#CCC(=O)N[C@H]1CC[C@H](CCN2CCN(c3ccccc3C(F)(F)F)CC2)CC1` was 278 °C.
For `CC(=O)CN1CCC(CCN2CCN(c3ccccc3Cl)CC2)CC1.Cl.Cl` the value was 265 °C; for `CC(=O)CN1CCC(CCN2CC=C(c3cccc(C)c3C)CC2)CC1.Cl.Cl`, 310 °C.
The value for `COCCNC(=O)C[C@H]1CC[C@H](CCN2CCN(c3cccc(C(F)(F)F)c3)CC2)CC1.Cl` was 143 °C.
`CCc1cccc(C2=CCN(CC[C@H]3CC[C@H](NC(=O)CC#N)CC3)CC2)c1` had a melting point of 158 °C.
The value for `CC(=O)CN1CCC(CCN2CCN(c3cccc(Cl)c3F)CC2)CC1.Cl.Cl` was 270 °C; that for `CC(=O)CN1CCC(CCN2CCN(c3cccc(C)c3)CC2)CC1.Cl.Cl` was 260 °C.
The value for `CC(=O)CN1CCC(CCN2CCN(c3cc(C)cc(C)c3)CC2)CC1.Cl.Cl` was 275 °C; that for `CC(=O)CN1CCC(CCN2CCN(c3ccccc3C#N)CC2)CC1.Cl.Cl` was 290 °C.
The value for `CC(=O)CN1CCC(CCN2CCN(c3cccc4ncccc34)CC2)CC1.Cl.Cl` was 295 °C; that for `Cl.N#CCCCC(=O)N[C@H]1CC[C@H](CCN2CCN(c3ccccc3C(F)(F)F)CC2)CC1` was 248 °C.
`CC(=O)CN1CCC(CCN2CCN(c3ccc(F)cc3)CC2)CC1.Cl.Cl` returned a melting point of 270 °C.
`CCOCC(=O)N[C@H]1CC[C@H](CCN2CCN(c3cccc(C(F)(F)F)c3)CC2)CC1.Cl` returned a melting point of 184 °C.
The value for `CC(=O)CN1CCC(CCN2CCN(c3ccc(C)c(C)c3)CC2)CC1.Cl.Cl` was 275 °C; that for `COc1c(Cl)cccc1N1CCN(CCC2CCN(CC(C)=O)CC2)CC1.Cl.Cl` was 270 °C; that for `N#CCC(=O)N[C@H]1CC[C@H](CCN2CC=C(c3ccc(C(F)(F)F)cc3)CC2)CC1` was 217 °C.
Molecule `O=C(N[C@H]1CC[C@H](CCN2CC=C(c3ccc(F)cc3F)CC2)CC1)C1=CCCC1` showed a melting point of 166 °C.
With `O=C(N[C@H]1CC[C@H](CCN2CC=C(c3ccccc3F)CC2)CC1)C1=CCCC1`, the melting point worked out at 192 °C.
The value for `N#CCCCC(=O)N[C@H]1CC[C@H](CCN2CC=C(c3cccc(C(F)(F)F)c3)CC2)CC1` was 102 °C; that for `CC(=O)C(=O)N1CCC(CCN2CCN(c3cccc4c3CCC4)CC2)CC1.Cl` was 225 °C; that for `Cc1cc(C)cc(C2=CCN(CC[C@H]3CC[C@@H](NC(=O)CC#N)CC3)CC2)c1.Cl` was 220 °C.
The molecule `CC(=O)CN1CCC(CCN2CCN(c3ccc(F)c(C(F)(F)F)c3)CC2)CC1.Cl.Cl` returned a melting point of 266 °C.
For `CC(=O)CN1CCC(CCN2CCN(c3cccc(OC(C)C)c3)CC2)CC1.Cl.Cl` the value was 237 °C; for `CC(=O)CN1CCC(CCN2CCN(c3cccc(C(C)(C)C)c3)CC2)CC1.Cl.Cl`, 257 °C.
For the molecule `CC(=O)CN1CCC(CCN2CCN(c3cc(F)c(F)c(F)c3F)CC2)CC1.Cl.Cl`, the melting point is 235 °C.
`CC(=O)CN1CCC(CCN2CCN(c3cc(C(F)(F)F)nc(C(C)(C)C)n3)CC2)CC1.Cl.Cl.Cl`: the melting point turned out to be 287 °C.
The value for `CC(=O)CN1CCC(CCN2CCN(c3ccc(Cl)cc3Cl)CC2)CC1.Cl.Cl` was 283 °C; that for `CC(=O)CN1CCC(CCN2CCN(c3cccc(CC(C)C)c3)CC2)CC1.Cl.Cl` was 240 °C; that for `N#CCC(=O)CN1CCC(CCN2CCN(c3cccc(C(F)(F)F)c3)CC2)CC1` (as salt: hydrochloride) was 160 °C.
For `CC(=O)CN1CCC(CCN2CCN(c3cccc(Cl)c3Cl)CC2)CC1` (as salt: hydrochloride) [Example 737, 1-(4-{2-[4-(2,3-Dichlorophenyl)piperazin-1-yl]ethyl}piperidin-1-yl)propan-2-one, dihydrochloride] the value was 281 °C; for `CNC(=O)CC1CCC(CCN2CCN(c3cccc(C(F)(F)F)c3)CC2)CC1` (mixture of isomers) [Example 295, N-Methyl-2-(4-{2-[4-(3-trifluoromethylphenyl)piperazin-1-yl]ethyl}cyclohexyl)acetamide cis/trans 50/50], 196 °C.
Molecule `Cl.Cl.N#Cc1cccc(N2CCN(CC[C@H]3CC[C@H](NC(=O)[C@@H]4CCCN4)CC3)CC2)c1` (stereo in doubt) had a melting point of 314 °C.
The value for `Cl.Cl.O=C(N[C@H]1CC[C@H](CCN2CCN(c3cc(C(F)(F)F)ccc3F)CC2)CC1)[C@@H]1CCCN1` (stereo in doubt) was 274 °C.
Molecule `Cl.Cl.O=C(N[C@H]1CC[C@H](CCN2CCN(c3ccc(F)cc3F)CC2)CC1)[C@@H]1CCCN1` (stereo in doubt) yielded a melting point of 260 °C.
The value for `CO[C@H](C)C(=O)N[C@H]1CC[C@H](CCN2CCN(c3ccccc3F)CC2)CC1` (stereo in doubt) [Example 75, N-(4-{2-[4-(2-Fluorophenyl)-piperazin-1-yl]ethyl}cyclohexyl)-2-methoxypropanamide] was 162 °C.
For `N#C[C@@H]1CC1C(=O)N[C@H]1CC[C@H](CCN2CCN(c3cccc(C(F)(F)F)c3)CC2)CC1` (stereo in doubt) [Example 324, 2-Cyano-cyclopropanecarboxylic acid (4-{2-[4-(3-trifluoromethylphenyl)piperazin-1-yl]ethyl}cyclohexyl) amide] the value was 159 °C; for `CC(=O)c1cccc(N2CCN(CC[C@H]3CC[C@H](NC(=O)CC#N)CC3)CC2)c1` [Example 7, N-(4-{2-[4-(3-acetylphenyl)piperazin-1-yl]ethyl}cyclohexyl)-2-cyanoacetamide trans/cis 80/20], 160 °C.
Regarding `CC(=O)CN1CCC(CCN2CCN(c3cccc(Cl)c3Cl)CC2)CC1` [Example 21, 1-(4-{2-[4-(2,3-Dichlorophenyl)piperazin-1-yl]ethyl}piperidin-1-yl)propan-2-one], the melting point worked out at 87 °C.
The value for `CC(=O)CN1CCC(CCN2CCN(c3cccc(Cl)c3)CC2)CC1` [Example 29, 1-(4-{2-[4-(3-Chlorophenyl)-piperazin-1-yl]ethyl}piperidin-1-yl)propan-2-one] was 114 °C.
In turn, `O=C(N[C@H]1CC[C@H](CCN2CCN(c3cccc(C(F)(F)F)c3)CC2)CC1)C(F)(F)F` [Example 38, 2,2,2-Trifluoro-N-(4-{2-[4-(3-trifluoromethylphenyl)piperazin-1-yl]ethyl}cyclohexyl)acetamide] yielded a melting point of 134 °C.
For `COC(=O)N[C@H]1CC[C@H](CCN2CCN(c3cccc(C(F)(F)F)c3)CC2)CC1` [Example 39, (4-{2-[4-(3-Trifluoromethyl-phenyl)piperazin-1-yl]ethyl}cyclo-hexyl)carbamic acid methyl ester] the value was 135 °C.
Molecule `O=C(N[C@H]1CC[C@H](CCN2CCN(c3cccc(C(F)(F)F)c3)CC2)CC1)C1CCCO1` (stereo partly drawn) [Example 40, Tetrahydrofuran-2-carboxylic acid (4-{2-[4-(3-trifluoromethylphenyl)piperazin-1-yl]ethyl}cyclohexyl)amide] returned a melting point of 135 °C.
For `COCC(=O)N[C@H]1CC[C@H](CCN2CCN(c3cccc(C(F)(F)F)c3)CC2)CC1` [Example 41, 2-Methoxy-N-(4-{2-[4-(3-trifluoromethylphenyl)piperazin-1-yl]ethyl}cyclohexyl)acetamide] the value was 123 °C; for `O=C(N[C@H]1CC[C@H](CCN2CCN(c3cccc(C(F)(F)F)c3)CC2)CC1)C(F)F` [Example 44, 2,2-Difluoro-N-(4-{2-[4-(3-trifluoromethylphenyl)piperazin-1-yl]ethyl}cyclohexyl)acetamide], 128 °C.
For `O=C(N[C@H]1CC[C@H](CCN2CCN(c3cccc(C(F)(F)F)c3)CC2)CC1)C1=CCCC1` [Example 45, Cyclopent-1-enecarboxylic acid (4-{2-[4-(3-trifluoromethyl-phenyl)piperazin-1-yl]ethyl}cyclohexyl)amide] the value was 175 °C.
For `COCCC(=O)N[C@H]1CC[C@H](CCN2CCN(c3cccc(C(F)(F)F)c3)CC2)CC1` [Example 47, 3-Methoxy-N-(4-{2-[4-(3-trifluoromethylphenyl)piperazin-1-yl]ethyl}cyclohexyl)propanamide], the melting point was determined as 125 °C.
The value for `COCC(=O)N[C@H]1CC[C@H](CCN2CCN(c3ccc(F)cc3F)CC2)CC1` [Example 48, N-(4-{2-[4-(2,4-Difluorophenyl)-piperazin-1-yl]ethyl}cyclohexyl)-2-methoxyacetamide] was 154 °C; that for `COCC(=O)N[C@H]1CC[C@H](CCN2CCN(c3cccc(C)c3C#N)CC2)CC1` [Example 49, N-(4-{2-[4-(2-Cyano-3-methylphenyl)piperazin-1-yl]ethyl}cyclohexyl)-2-methoxyacetamide] was 136 °C.
As for `COCC(=O)N[C@H]1CC[C@H](CCN2CCN(c3ccccc3F)CC2)CC1` [Example 50, N-(4-{2-[4-(2-Fluorophenyl)-piperazin-1-yl]ethyl}cyclohexyl)-2-methoxyacetamide], the melting point was in the range of 143 to 144 °C.
The value for `O=C(N[C@H]1CC[C@H](CCN2CCN(c3cccc(C(F)(F)F)c3)CC2)CC1)C1CC=CC1` [Example 52, Cyclopent-3-enecarboxylic acid (4-{2-[4-(3-trifluoromethylphenyl)-piperazin-1-yl]ethyl}cyclohexyl)-amide] was 183 °C; that for `O=C(N[C@H]1CC[C@H](CCN2CCN(c3cccc(C(F)(F)F)c3)CC2)CC1)C1=CCCCC1` [Example 53, Cyclohex-1-enecarboxylic acid (4-{2-[4-(3-trifluoromethylphenyl)-piperazin-1-yl]ethyl}cyclohexyl)-amide] was 175 °C.

The melting point is the temperature, or range, at which the solid turns liquid.
